From PubChem BioAssay AID194 (DTP/NCI, 2004) come the findings set out here.

The assay relates to BDF1 mice, B16 melanoma s.c., survival/tumor T/C. Briefly: NCI In Vivo Anticancer Drug Screen. Data for tumor model B16 Melanoma (subcutaneous) in B6D2F1 (BDF1) mice. As for the experimental part:
The antitumor activity of compounds was measured in mice bearing transplantable tumors. Survival or tumor size were measured and the results are expressed as the measurement made in the treated group (T) divided by the measurement made in the vehicle treated control group (C). The tumor model used in this assay is B16 Melanoma (subcutaneous) in B6D2F1 (BDF1) mice

Where [1] appears, read: endpoint: median survival time, dose: 4.0 mg/kg/injection, schedule: Q01DX009 (ip), vehicle: saline with Tween-80, higher = longer survival.
[2] abbreviates: endpoint: median survival time, dose: 8.0 mg/kg/injection, schedule: Q01DX009 (ip), vehicle: saline with Tween-80, higher = longer survival.
Setting [3] is: endpoint: median survival time, dose: 16.0 mg/kg/injection, schedule: Q01DX009 (ip), vehicle: saline with Tween-80, higher = longer survival.
The mark [4] stands for this setting: endpoint: median survival time, dose: 32.0 mg/kg/injection, schedule: Q01DX009 (ip), vehicle: saline with Tween-80, higher = longer survival.
Setting [5] is: endpoint: median survival time, dose: 64.0 mg/kg/injection, schedule: Q01DX009 (ip), vehicle: saline with Tween-80, higher = longer survival.
Where [6] appears, read: endpoint: median survival time, dose: 20.0 mg/kg/injection, schedule: Q01DX009 (ip), vehicle: Klucel (hydroxypropylcellulose) (HPC), higher = longer survival.
[7] abbreviates: endpoint: median survival time, dose: 40.0 mg/kg/injection, schedule: Q01DX009 (ip), vehicle: Klucel (hydroxypropylcellulose) (HPC), higher = longer survival.
[8] abbreviates: endpoint: median survival time, dose: 80.0 mg/kg/injection, schedule: Q01DX009 (ip), vehicle: Klucel (hydroxypropylcellulose) (HPC), higher = longer survival.
The mark [9] stands for this setting: endpoint: median survival time, dose: 160.0 mg/kg/injection, schedule: Q01DX009 (ip), vehicle: Klucel (hydroxypropylcellulose) (HPC), higher = longer survival.

Several values for one entry are separate records, joined by “and”; a condition that tells them apart may be missing. Identical values can stand only once. Results filed as inconclusive are left out.

Consider `CCOc1ccc2nc(S(N)(=O)=O)sc2c1`, for which the T/C (endpoint: median survival time, dose: 3.75 mg/kg/injection, schedule: Q01DX009 (ip), vehicle: saline, higher = longer survival) was 121 % of control; the T/C (endpoint: median survival time, dose: 7.5 mg/kg/injection, schedule: Q01DX009 (ip), vehicle: saline, higher = longer survival) was 123 % of control; the T/C (endpoint: median survival time, dose: 15.0 mg/kg/injection, schedule: Q01DX009 (ip), vehicle: saline, higher = longer survival) is 121 % of control; the T/C (endpoint: median survival time, dose: 30.0 mg/kg/injection, schedule: Q01DX009 (ip), vehicle: saline, higher = longer survival) was 95 % of control.
Regarding `Nc1nc(=S)c2ncn(C3CC(O)C(CO)O3)c2[nH]1` (stereo not drawn), the T/C by setting is: under setting [1], 109 % of control; under setting [2], 91 % of control; under setting [3], 95 % of control; under setting [4], 91 % of control; under setting [5], 123 % of control.
Regarding `CCN1C=C/C(=C/c2cc3scc(-c4ccccc4)[n+]3c3ccccc23)c2ccccc21`, the T/C (endpoint: median survival time, dose: 0.15 mg/kg/injection, schedule: Q01DX009 (ip), vehicle: Klucel (hydroxypropylcellulose) (HPC), higher = longer survival) is 107 % of control.
Turning to `COc1cc([C@@H]2c3cc4c(cc3[C@@H](OC3OC5COC(C)OC5C(O)C3O)[C@H]3COC(=O)[C@H]23)OCO4)cc(OC)c1O` (stereo partly drawn), the T/C is 169 % of control (endpoint: median survival time, dose: 2.0 mg/kg/injection, schedule: Q01DX009 (ip), vehicle: saline, higher = longer survival); 117 % of control (endpoint: median survival time, dose: 3.0 mg/kg/injection, schedule: Q01DX009 (ip), vehicle: saline, higher = longer survival); 117 % of control (endpoint: median survival time, dose: 34.0 mg/kg/injection, schedule: Q01DX001 (ip), vehicle: saline, higher = longer survival); 156 % of control (endpoint: median survival time, dose: 40.0 mg/kg/injection, schedule: Q04DX003 (ip), vehicle: saline, higher = longer survival); 117 % of control (endpoint: median survival time, dose: 50.0 mg/kg/injection, schedule: Q01DX001 (ip), vehicle: saline, higher = longer survival).
In the case of `CN(N=O)C(=O)N[C@@H](C=O)[C@@H](O)[C@H](O)[C@H](O)CO`, the T/C reads like this: (endpoint: median survival time, dose: 20.0 mg/kg/injection, schedule: Q01DX009 (ip), vehicle: other, higher = longer survival) 113 % of control; (endpoint: median survival time, dose: 40.0 mg/kg/injection, schedule: Q01DX009 (ip), vehicle: other, higher = longer survival) 123 % of control; (endpoint: median survival time, dose: 80.0 mg/kg/injection, schedule: Q01DX009 (ip), vehicle: other, higher = longer survival) 106 % of control.
Consider `CC(NSc1ccccc1[N+](=O)[O-])C(=O)O` (stereo not drawn), for which the T/C by setting is: (endpoint: median survival time, dose: 12.5 mg/kg/injection, schedule: Q01DX009 (ip), vehicle: saline with Tween-80, higher = longer survival) 109 % of control; (endpoint: median survival time, dose: 25.0 mg/kg/injection, schedule: Q01DX009 (ip), vehicle: saline with Tween-80, higher = longer survival) 106 % of control; (endpoint: median survival time, dose: 50.0 mg/kg/injection, schedule: Q01DX009 (ip), vehicle: saline with Tween-80, higher = longer survival) 89 % of control; (endpoint: median survival time, dose: 100.0 mg/kg/injection, schedule: Q01DX009 (ip), vehicle: saline with Tween-80, higher = longer survival) 122 % of control.
For the compound `CO[C@H]1/C=C/O[C@@]2(C)Oc3c(C)c(O)c4c(O)c(c(/C=N/N5C(C)CN(Cc6ccccc6)CC5C)c(O)c4c3C2=O)NC(=O)/C(C)=C\C=C\[C@H](C)[C@H](O)[C@@H](C)[C@@H](O)[C@@H](C)[C@H](OC(C)=O)[C@@H]1C` (stereo partly drawn), the T/C (endpoint: median survival time, dose: 50.0 mg/kg/injection, schedule: Q02DX Z (oral), vehicle: Klucel (hydroxypropylcellulose) (HPC), higher = longer survival) is 101 % of control; the T/C (endpoint: median survival time, dose: 100.0 mg/kg/injection, schedule: Q02DX Z (oral), vehicle: Klucel (hydroxypropylcellulose) (HPC), higher = longer survival) is 89 % of control; the T/C (endpoint: median survival time, dose: 200.0 mg/kg/injection, schedule: Q02DX Z (oral), vehicle: Klucel (hydroxypropylcellulose) (HPC), higher = longer survival) is 86 % of control.
`Cc1c[n+]2c3ccccc3c3ccccc3c2s1`: the T/C under setting [6] is 121 % of control.
As for `O=C1C(=O)c2ccccc2C(O)=C1CC=C(Cl)Cl`, the T/C (endpoint: median survival time, dose: 8.0 mg/kg/injection, schedule: Q01DX009 (ip), vehicle: saline + alcohol, higher = longer survival) is 87 % of control; the T/C (endpoint: median survival time, dose: 16.0 mg/kg/injection, schedule: Q01DX009 (ip), vehicle: saline + alcohol, higher = longer survival) was 109 % of control; the T/C (endpoint: median survival time, dose: 32.0 mg/kg/injection, schedule: Q01DX009 (ip), vehicle: saline + alcohol, higher = longer survival) is 77 % of control; the T/C (endpoint: median tumor weight (est.), dose: 12.5 mg/kg/injection, schedule: Q01DX009 (ip), vehicle: Klucel (hydroxypropylcellulose) (HPC), higher = larger tumour) was 94 % of control and 104 % of control and 108 % of control; the T/C (endpoint: median tumor weight (est.), dose: 50.0 mg/kg/injection, schedule: Q01DX009 (ip), vehicle: Klucel (hydroxypropylcellulose) (HPC), higher = larger tumour) is 53 % of control and 55 % of control and 64 % of control.
On to `CCCCC[C@H](O)/C=C/[C@H]1[C@H](O)CC(=O)[C@@H]1C/C=C\CCCC(=O)O`, for which the T/C runs as follows: (endpoint: median survival time, dose: 0.75 mg/kg/injection, schedule: Q04DX002 (ip), vehicle: Klucel (hydroxypropylcellulose) (HPC), higher = longer survival) 98 % of control; (endpoint: median survival time, dose: 3.0 mg/kg/injection, schedule: Q04DX002 (ip), vehicle: Klucel (hydroxypropylcellulose) (HPC), higher = longer survival) 118 % of control; (endpoint: median survival time, dose: 6.0 mg/kg/injection, schedule: Q04DX002 (ip), vehicle: Klucel (hydroxypropylcellulose) (HPC), higher = longer survival) 122 % of control; (endpoint: median survival time, dose: 12.5 mg/kg/injection, schedule: Q04DX002 (ip), vehicle: saline with Tween-80, higher = longer survival) 87 % of control.
For the compound `CC1=C(/C=C/C(C)=C/C=C/C(C)=C/CO)C(C)(C)CCC1`, the T/C under setting [1] is 102 % of control; the T/C under setting [2] was 94 % of control; the T/C under setting [3] is 101 % of control and 117 % of control; the T/C under setting [4] was 100 % of control and 102 % of control; the T/C under setting [5] is 92 % of control.
As to `CN(C)c1nc(N(C)C)nc(N(C)C)n1`, the T/C is, setting by setting: under setting [6], 115 % of control; under setting [7], 118 % of control; under setting [8], 111 % of control; under setting [9], 115 % of control.
For `CSCS(=O)C[C@H](CO)NC(=O)/C=C/c1c(C)[nH]c(=O)[nH]c1=O` (stereo partly drawn), the T/C (endpoint: median survival time, dose: 0.08 mg/kg/injection, schedule: Q01DX009 (ip), vehicle: water, higher = longer survival) was 90 % of control; the T/C (endpoint: median survival time, dose: 0.15 mg/kg/injection, schedule: Q01DX009 (ip), vehicle: water, higher = longer survival) was 112 % of control; the T/C (endpoint: median survival time, dose: 0.3 mg/kg/injection, schedule: Q01DX009 (ip), vehicle: water, higher = longer survival) is 96 % of control; the T/C (endpoint: median survival time, dose: 0.6 mg/kg/injection, schedule: Q01DX009 (ip), vehicle: water, higher = longer survival) is 100 % of control.
Turning to `CN(Cc1cnc2nc(N)nc(N)c2n1)c1c(Cl)cc(C(=O)NC(CCC(=O)O)C(=O)O)cc1Cl` (stereo not drawn), the T/C is, setting by setting: (endpoint: median survival time, dose: 60.0 mg/kg/injection, schedule: Q01DX009 (ip), vehicle: sodium bicarbonate, higher = longer survival) 103 % of control; (endpoint: median survival time, dose: 90.0 mg/kg/injection, schedule: Q01DX009 (ip), vehicle: sodium bicarbonate, higher = longer survival) 110 % of control; (endpoint: median survival time, dose: 135.0 mg/kg/injection, schedule: Q01DX009 (ip), vehicle: sodium bicarbonate, higher = longer survival) 101 % of control; (endpoint: median survival time, dose: 600.0 mg/kg/injection, schedule: Q04DX003 (ip), vehicle: sodium bicarbonate, higher = longer survival) 109 % of control; (endpoint: median survival time, dose: 670.0 mg/kg/injection, schedule: Q01DX001 (ip), vehicle: sodium bicarbonate, higher = longer survival) 97 % of control; (endpoint: median survival time, dose: 900.0 mg/kg/injection, schedule: Q04DX003 (ip), vehicle: sodium bicarbonate, higher = longer survival) 102 % of control. In addition, for the setting “endpoint: median survival time, dose: 1000.0 mg/kg/injection, schedule: Q01DX001 (ip), vehicle: sodium bicarbonate, higher = longer survival”, the T/C is 102 % of control.
Turning to `CNc1nc(N(C)C)nc(N(C)C)n1`, the T/C was 112 % of control (endpoint: median survival time, dose: 67.0 mg/kg/injection, schedule: Q01DX009 (ip), vehicle: water, higher = longer survival); 96 % of control (endpoint: median survival time, dose: 100.0 mg/kg/injection, schedule: Q04DX003 (ip), vehicle: water, higher = longer survival); 95 % of control (endpoint: median survival time, dose: 150.0 mg/kg/injection, schedule: Q04DX003 (ip), vehicle: water, higher = longer survival); 90 % of control (endpoint: median survival time, dose: 225.0 mg/kg/injection, schedule: Q04DX003 (ip), vehicle: water, higher = longer survival).
With `CCCCNCCCNCCCNC(=O)c1csc(-c2csc(CCNC(=O)C(NC(=O)C(C)C(O)C(C)NC(=O)C(NC(=O)c3nc(C(CC(N)=O)NCC(N)C(N)=O)nc(N)c3C)C(OC3OC(CO)C(O)C(O)C3OC3OC(CO)C(O)C(OC(N)=O)C3O)c3cnc[nH]3)C(C)O)n2)n1` (stereo not drawn), the T/C is, setting by setting: (endpoint: median survival time, dose: 0.31 mg/kg/injection, schedule: Q01DX009 (ip), vehicle: water, higher = longer survival) 86 % of control; (endpoint: median survival time, dose: 0.62 mg/kg/injection, schedule: Q01DX009 (ip), vehicle: water, higher = longer survival) 154 % of control; (endpoint: median survival time, dose: 1.25 mg/kg/injection, schedule: Q01DX009 (ip), vehicle: water, higher = longer survival) 120 % of control; (endpoint: median survival time, dose: 2.5 mg/kg/injection, schedule: Q01DX009 (ip), vehicle: water, higher = longer survival) 122 % of control; (endpoint: median survival time, dose: 5.0 mg/kg/injection, schedule: Q01DX009 (ip), vehicle: water, higher = longer survival) 158 % of control.
Take `CNNCc1ccc(C(=O)NC(C)C)cc1`: the T/C reads like this: under setting [7], 102 % of control; under setting [8], 113 % of control; under setting [9], 102 % of control and 115 % of control; (endpoint: median survival time, dose: 320.0 mg/kg/injection, schedule: Q01DX009 (ip), vehicle: Klucel (hydroxypropylcellulose) (HPC), higher = longer survival) 95 % of control.
